The source of these data is patent US5731334A, “Method for treating cancer using taxoid onium salt prodrugs” (priority 1995, dated 1998).

In general, IC50 refers to the point on the concentration scale where inhibition reaches its midpoint.

For data set [1], the system named is RPMI-7666 blood lymphoblasts. As to the kind of experiment: XTT dye binding cytotoxicity assay, RPMI-7666. The following applies: Homo sapiens; RPMI-7666, blood lymphoblasts (untransformed); 72 h; read-out: IC50. The data set is classed as cell-based. On the procedure: (§1) All cell lines described herein were obtained from the ATCC and maintained in media formulations as recommended by the supplier. The cell lines were tested for mycoplasma contamination prior to incubation at 37° C. in 5% carbon dioxide. Normal human dermal fibroblasts, peripheral blood lymphoblasts and mammary epithelial cells were obtained from Clonogenic Cor., San Diego, Calif. and were maintained under the above incubation conditions in special media provided by the supplier.
(§2) Antiproliferative activities of the onium salts were determined using the XTT dye binding assay. Cells were harvested with trypsin/EDTA (Irvine Scientific), washed, resuspended in the appropriate medium, and counted in a hemocytometer using Trypan Blue to determine viability. Then 10^4 cells/well were added to 96 well microtiter plates and incubated for 24 hours before addition of drug at concentrations in the range of 10^-4 to 10^-13 molar by direct addition from DMSO solutions. After 72 hours, XTT binding dye was added and incubation was continued for 4 hours. The inhibition of cell proliferation was quantified using a Molecular Devices Microplate Reader. The absorbance of XTT was measured at […]. The concentration of drug which inhibited growth of cells by 50% was calculated from duplicated determinations.
For orientation: Formazan colour is commonly taken as a measure of viable cells.

Data set [2] deals with M-24 metastatic melanoma cells. As to the kind of experiment: XTT dye binding cytotoxicity assay, M-24. It counts as cell-based. Conditions: Homo sapiens, M24; M-24, melanoma-metastatic; 72 h; read-out: IC50. On the procedure:
as §1, §2

Data set [3] concerns PC-3 prostate carcinoma tumor xenograft. The data set can be described thus: PC-3 prostate tumor xenograft in nude mice.
Method: (§3) Athymic nude mice were purchased from Harlan-Sprague-Dawley. The animals were housed in microisolated cases under positive air pressure and all manipulations and drug treatments were performed in a laminar flow cabinet. Tumor cells were grown under the above tissue culture conditions. Cell suspensions in RPMI medium were injected S./C. Treatment was started one day after inoculation by i.p. injection of 400 μl drug solutions. Tumors were measured 3 times weekly in two dimensions, using calipers and tumor volume as calculated using the formula (V=w^2 ×L×(3.142).
The tumor model was generated from an ATTC PC-3 prostate carcinoma cell line that was maintained under standard cell proliferation conditions, viz. 37° C., 5% carbon dioxide in sterile air. Each cohort was comprised of eight randomly chosen female athymic nude mice, for a total population size of twenty four. Hemocytometer counted cells, suspended in Hanks mediun (Gibco, Grand Island N.Y.) were implanted S.C. (10^6 cells in 0.4 mL per mouse). Solid tumor growth was measured on each third day. Equimolar amounts of the test compounds (1.0 mM, 400 μL) were injected i.p. on days 1, 3, 5, 7, 9, and 11 using the following media:
(.smallcircle.): Control, 5% dextrose in 5× distilled water (5 DW)
(Δ): Taxol (18.0 mg/kg of animal weight or approximately 1.260 mg/m^2) suspended in Cremaphor/D5W
Inferences about efficacy were drawn by ANOVA followed by protected t-test. […] Data shown as mean value with standard error.
Data set [4] relates to Molt-4 T-cell leukemia cells. The data set can be described thus: XTT dye binding cytotoxicity assay, Molt-4. It counts as cell-based. The following applies: Homo sapiens; Molt-4, T-cell leukemia; 72 h; read-out: IC50. On the procedure:
as §1, §2

Data set [5] can be described thus: Comparative toxicities (lethality) in mice. The following applies: in vivo.
Data set [6] concerns intact Molt-4 cells. As to the kind of experiment: Competition binding of tritiated compounds to intact Molt-4 cells. The arrangement: species or system human. On the procedure:
The competition by nonradioactive taxol or c-2'-MPA-taxol for the binding of 1×10^-9 M tritiated compounds by intact Molt-4 cells is illustrated in FIG. 3. Tritiated taxol (Moravek Corp.) was treated with 2-fluoropyridiunium tosylate according to the method of Nicolaou et al. to yield the C-2'-MPT-^3 H-taxol. (Angew. Chem., Int. Ed. 1994: vol. 34, pp. 1583-1587.) Six well plates were incubated with 10^6 Molt-4 cells in 50 mM phosphate buffered saline (PBS) or PRPMI media to which 10^-9 M of the radiolabeled taxol or taxol onium salt was added together with increasing concentrations of nonradiolabeled compound. After 30 minutes, the cells were centrifuged, washed with PBS and 1% SDS was added. […] Alternatively, the cells may be lysed by sonication.

For data set [7], the system named is BT-549 breast carcinoma cells. As to the kind of experiment: XTT dye binding cytotoxicity assay, BT-549. The data set is classed as cell-based. Conditions: Homo sapiens; BT-549, breast carcinoma; 72 h; read-out: IC50. Here is the method:
as §1, §2

Data set [8] relates to A549 lung adenocarcinoma tumor xenograft. As to the kind of experiment: Human lung adenocarcinoma A549 xenograft in nude mice. The following applies: 1.0 mM, 400 μL i.p. days 1, 3, 5, 7, 9, 11.
Method: as §3
The tumor model was generated from A549 cell line, an ATTC that was maintained under standard cell proliferation conditions (37° C., 5% carbon dioxide in sterile air). Each cohort was comprised of six randomly chosen female athymic nude mice, for a total population size of twenty four mice. Hemocytometer counted cells, suspended in Hanks mediun (Gibco, Grand Island N.Y.) were implated S.C. (10^6 cells in 0.4 mL per mouse). Solid tumor growth was measured on each third day. Equimolar amounts of the test compounds (1.0 mM, 400 μL) were injected i.p. on days 1, 3, 5, 7, 9, and 11 using the following media:
(Δ): Control, saline in 5× distilled water (5 DW)
(.smallcircle.): Taxol (18.0 mg/kg of animal weight or approximately 1,260 mg/m^2) suspended in Cremaphor/D5W […]
Data set [9] can be described thus: Toxicity and survival in vivo (tumor bearing nude mice).
In data set [10] the test system is PC-3 prostate carcinoma cells. As to the kind of experiment: XTT dye binding cytotoxicity assay, PC-3. The data set is classed as cell-based. The following applies: Homo sapiens, 72 h. Here is the method: as §1, §2
The subject of data set [11] is UCLA-P3 lung carcinoma cells. As to the kind of experiment: XTT dye binding cytotoxicity assay, UCLA-P3. The data set is classed as cell-based. Conditions: Homo sapiens, UCLA P-3, 72 h. Here is the method: as §1, §2
For data set [12], the system named is NHDF dermal fibroblast. The data set can be described thus: XTT dye binding cytotoxicity assay, NHDF. The data set is classed as cell-based. Conditions: Homo sapiens, dermal fibroblast (untransformed), 72 h, read-out: IC50. On the procedure: as §1, §2

In the case of `CC(=O)O[C@H]1C(=O)[C@@]2(C)[C@H]([C@H](OC(=O)c3ccccc3)[C@]3(O)C[C@H](OC(=O)[C@H](Oc4cccc[n+]4C)[C@@H](NC(=O)c4ccccc4)c4ccccc4)C(C)=C1C3(C)C)[C@]1(OC(C)=O)CO[C@@H]1C[C@@H]2O` [Compound 2], the concentration for half-maximal inhibition (IC50) in [1] was determined as 131 nM; in data set [2], 0.35 nM; in data set [4], 7.07 nM; in [7], 5.72 nM; in data set [10], 6.47 nM; in data set [11], 2.44 nM. Further, the half-inhibitory concentration (IC50) in data set [12] came out at 377 nM. Moreover, the “antitumor activity, PC-3” value in data set [3] (1.0 mM, 400 μL i.p., established tumors) is on record as “regression of established tumors”. Besides, the “complete remission with no palpable tumor mass, PC-3” value in data set [3] (at termination, after 24 days) was 5 out of 8 animals. The “in vivo toxicity relative to taxol or taxotere” value in data set [5] was “much less toxic in vivo than taxol or taxotere”. The Toxicity entry in data set [5] (mouse) is recorded as “minimal toxicity”; in [9] (Table II, in vivo), “low”. The lethality entry in data set [5] (mouse) is “no lethality”. Moreover, the Kd in data set [6] (calculated from slopes of linear portions of curves in FIG. 3, read-out: binding constant) is 3000 nM. The “affinity in competition assays of intact cells, in words” value in data set [6] (relative to parent taxol) is listed as “three orders of magnitude below that of the parent taxol”. In data set [6] (relative to taxol), the “lower specific binding affinity than taxol” value was “approximately 1000 fold”. Further, the “tumor growth inhibition, A549” value in [8] is reported as “inhibited tumor growth nearly completely”. Further, the “% survival” value in data set [9] (at end of experiments) amounted to 100%. Further, the “in vivo tolerance / toxicity in words” value in [9] (nude mice) was “well tolerated, showing no visible toxic side effects and no significant weight loss”.
